Reference: patent US20120053168A1, “FUSED BENZOAZEPINES AS NEURONAL NICOTINIC ACETYLCHOLINE RECEPTOR LIGANDS” (Targacept, Inc., priority 2009, published 2012)

Experiments:
[1] = molecular target: T1, Human α4β2 nAChR subtype (Homo sapiens, UniProt P17787+P43681); assay: [3H]nicotine radioligand binding, membranes from SH-EP1/human α4β2 clonal cells
T1 construct: expressed in transfected cells; host or cells: SH-EP1 clonal cells
Protocol: Preparation of membranes from SH-EP1/human α4β2 clonal cells:
Cell pellets from 40 150 mm culture dishes were pooled, and homogenized by Polytron (Kinematica GmbH, Switzerland) in 20 milliliters of ice-cold preparative buffer. The homogenate was centrifuged at 48,000 g for 20 minutes at 4° C. The resulting pellet was re-suspended in 20 mL of ice-cold preparative buffer and stored at ˜20° C.
(§1) On the day of the assay, the frozen membranes were thawed and spun at 48,000×g for 20 min. The supernatant was decanted and discarded. The pellet was resuspended in Dulbecco's phosphate buffered saline (PBS, Life Technologies) pH 7.4 and homogenized with the Polytron for 6 seconds. Protein concentrations were determined using a Pierce BCA Protein Assay Kit, with bovine serum albumin as the standard (Pierce Chemical Company, Rockford, Ill.).
(§2) Assay: Membrane preparations (approximately 50 μg for human and 200-300 μg protein for rat α4β2) were incubated in PBS (50 μL and 100 μL respectively) in the presence of competitor compound (0.01 nM to 100 μM) and 5 nM [^3H]nicotine for 2-3 hours on ice. Incubation was terminated by rapid filtration on a multi-manifold tissue harvester (Brandel, Gaithersburg, Md.) using GF/B filters presoaked in 0.33% polyethyleneimine (w/v) to reduce non-specific binding. Tissue was rinsed 3 times in PBS, pH 7.4. Scintillation fluid was added to filters containing the washed tissue and allowed to equilibrate. Filters were then counted to determine radioactivity bound to the membranes by liquid scintillation counting (2200CA Tri-Carb LSC, Packard Instruments, 50% efficiency or Wallac Trilux 1450 MicroBeta, 40% efficiency, Perkin Elmer).
(§3) Data were expressed as disintegrations per minute (DPMs). Within each assay, each point had 2-3 replicates. The replicates for each point were averaged and plotted against the log of the drug concentration. IC50, which is the concentration of the compound that produces 50% inhibition of binding, was determined by least squares non-linear regression. Ki values were calculated using the Cheng-Prussof equation (1973): […]
(§4) where N is the concentration of [^3H]nicotine and Kd is the affinity of nicotine (3 nM, determined in a separate experiment).

[2] = molecular target: T2, Rat α4β2 nAChR subtype (Rattus norvegicus, UniProt P09483+P12390); assay: [3H]nicotine radioligand binding, membranes from rat cortex
T2 construct: from tissue; host or cells: rat cerebral cortex membranes (female Sprague-Dawley)
T2 sequence (P09483 31-630): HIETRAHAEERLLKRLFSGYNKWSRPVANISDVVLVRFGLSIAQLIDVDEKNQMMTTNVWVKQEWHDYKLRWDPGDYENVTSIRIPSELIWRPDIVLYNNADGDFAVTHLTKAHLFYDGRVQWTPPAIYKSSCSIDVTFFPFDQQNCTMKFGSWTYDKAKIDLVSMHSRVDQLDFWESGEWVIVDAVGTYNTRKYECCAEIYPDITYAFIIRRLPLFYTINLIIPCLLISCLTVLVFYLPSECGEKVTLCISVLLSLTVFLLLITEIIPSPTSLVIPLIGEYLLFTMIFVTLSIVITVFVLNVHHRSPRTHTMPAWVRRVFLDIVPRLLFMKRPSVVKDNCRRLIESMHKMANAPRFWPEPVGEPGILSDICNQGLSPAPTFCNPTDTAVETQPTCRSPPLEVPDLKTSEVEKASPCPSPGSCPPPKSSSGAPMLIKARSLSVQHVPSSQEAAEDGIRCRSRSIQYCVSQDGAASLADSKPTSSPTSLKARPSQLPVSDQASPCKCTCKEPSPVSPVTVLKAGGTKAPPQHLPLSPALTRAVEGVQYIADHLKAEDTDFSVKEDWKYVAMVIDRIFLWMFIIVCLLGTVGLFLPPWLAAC
T2 sequence (P12390 25-500): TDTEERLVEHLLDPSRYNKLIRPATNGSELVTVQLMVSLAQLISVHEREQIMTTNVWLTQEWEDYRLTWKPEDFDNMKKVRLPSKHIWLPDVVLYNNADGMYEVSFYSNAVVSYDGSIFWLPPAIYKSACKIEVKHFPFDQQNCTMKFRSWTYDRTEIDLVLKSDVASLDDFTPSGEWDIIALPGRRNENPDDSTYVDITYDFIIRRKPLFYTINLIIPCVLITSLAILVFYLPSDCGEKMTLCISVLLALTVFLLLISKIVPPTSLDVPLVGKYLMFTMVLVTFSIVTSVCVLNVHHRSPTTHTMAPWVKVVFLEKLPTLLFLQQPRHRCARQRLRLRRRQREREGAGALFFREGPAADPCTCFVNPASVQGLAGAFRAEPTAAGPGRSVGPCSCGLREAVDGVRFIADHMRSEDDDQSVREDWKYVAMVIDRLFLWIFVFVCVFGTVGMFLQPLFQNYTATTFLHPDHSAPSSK
Protocol: Preparation of membranes from rat cortex: Rats (female, Sprague-Dawley), weighing 150-250 g, were maintained on a 12 h light/dark cycle and were allowed free access to water and food supplied by PMI Nutrition International, Inc. Animals were anesthetized with 70% CO2, and then decapitated. Brains were removed and placed on an ice-cold platform. The cerebral cortex was removed and placed in 20 volumes (weight:volume) of ice-cold preparative buffer (137 mM NaCl, 10.7 mM KCl, 5.8 mM KH2PO4, 8 mM Na2HPO4, 20 mM HEPES (free acid), 5 mM iodoacetamide, 1.6 mM EDTA, pH 7.4); PMSF, dissolved in methanol to a final concentration of 100 μM, was added and the suspension was homogenized by Polytron. The homogenate was centrifuged at 18,000×g for 20 min at 4° C. and the resulting pellet was re-suspended in 20 volumes of ice-cold water. After 60 min incubation on ice, a new pellet was collected by centrifugation at 18,000×g for 20 min at 4° C. The final pellet was re-suspended in 10 volumes of buffer and stored at ˜20° C.
as §1, §2, §3, §4

[3] = test system: normal rats; assay: Novel Object Recognition (NOR) task; format: in vivo, rat
Protocol: Episodic memory is a cognitive domain known to be impaired in Alzheimer's disease; the Novel Object Recognition task is a commonly used and quick, clean model used to assess potential cognitive benefit derived from the test compounds. Compound A (7,8,9,10-tetrahydro-6H-azepino[4,5-g]quinoxaline) improved long-term visual episodic/declarative memory as assessed by novel object recognition (NOR) task following oral dosing in normal rats. Memory was assessed by using the three-trial object recognition test. On the first day (exploratory trial), rats were allowed to explore an open arena (44.5×44.5×30.5 cm) for 6 min. On the second day (acquisition trial), rats were allowed to explore the same arena in the presence of two identical objects (both object A) for 3 minutes. On the third day (retention or recall trial), performance was evaluated by allowing the same animal to re-explore the arena for 3 minutes in the presence of two different objects: the familiar object A and a novel object B. An inter-trial interval of 24 hours was imposed between the three NOR trials. Recognition memory was assessed by comparing the time spent exploring a novel (object B) versus a familiar (object A) object during the recall trial. Recognition index was assessed for each animal and expressed as a ratio ((time B/time A+time B)×100).
Compound A was evaluated for its duration of effect in the NOR task in normal rats. Using similar experimental procedures as described earlier, 0.03, 0.1, and 0.3 mg/kg (0.15, 0.5 and 1.51 μmol/kg) Compound A was orally administered to animals 30 minutes prior to placement in the arena for the exploratory and acquisition trials. For the recall trial (i.e., third day of dosing), animals were placed in the arena at 6 h, post administration.
A follow-up NOR study evaluated the duration of effect of Compound A following a 6 h pre-treatment prior to the recall trial.

[4] = test system: mice impaired with scopolamine; assay: Morris Water Maze (MWM) task, scopolamine-impaired; format: in vivo; settings: 1 mg/kg (5 μmol/kg) p.o., scopolamine 0.75 mg/kg s.c.
Protocol: In an animal model of spatial memory, the efficacy of Compound A (7,8,9,10-tetrahydro-6H-azepino[4,5-g]quinoxaline) to attenuate water-maze performances of mice impaired with scopolamine (0.75 mg/kg, s.c.) was evaluated. Following a two-day acclimation period to the maze, mice were trained for 4 days to a platform location in the maze. During the training sessions, each animal was given four trials separated by 5 minutes between each trial. The platform location was constant for each animal. Compound A (1, 3 and 10 mg/kg or 5, 15.1 and 50 μmol/kg, p.o.) was administered 25 minutes prior to each of the four training days. Scopolamine was administered 15 minutes prior to each of the four training days. The probe trial (i.e., no platform present) was conducted on day 5 under drug-free (i.e., water instead of Compound A and saline instead of scopolamine) conditions. In the MWM model, Compound A (1, 3 and 10 mg/kg) was orally administered 25 minutes whereas scopolamine was subcutaneously administered 15 minutes prior to each of the four training days. During training days, each animal was given four trials separated by 5 minutes between trials. The probe trial was conducted on day 5 under drug-free (i.e., water instead of Compound A and saline instead of scopolamine) conditions.

T1 sequence (P43681 29-627 limits assumed): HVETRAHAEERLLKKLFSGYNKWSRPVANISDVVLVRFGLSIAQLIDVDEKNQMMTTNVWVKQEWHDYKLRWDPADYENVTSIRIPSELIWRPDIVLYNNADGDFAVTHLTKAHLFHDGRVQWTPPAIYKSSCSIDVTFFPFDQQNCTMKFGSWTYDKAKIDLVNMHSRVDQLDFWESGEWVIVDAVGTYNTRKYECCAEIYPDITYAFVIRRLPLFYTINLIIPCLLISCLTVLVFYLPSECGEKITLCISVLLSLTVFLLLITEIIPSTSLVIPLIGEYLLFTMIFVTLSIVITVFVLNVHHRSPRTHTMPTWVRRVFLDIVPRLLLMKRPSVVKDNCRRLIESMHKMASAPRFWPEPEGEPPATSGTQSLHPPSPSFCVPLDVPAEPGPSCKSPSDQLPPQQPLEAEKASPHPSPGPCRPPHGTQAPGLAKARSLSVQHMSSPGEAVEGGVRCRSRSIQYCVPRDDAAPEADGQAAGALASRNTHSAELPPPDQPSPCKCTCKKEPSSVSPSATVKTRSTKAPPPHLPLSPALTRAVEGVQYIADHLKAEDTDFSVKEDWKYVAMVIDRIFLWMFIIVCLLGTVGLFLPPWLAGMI
T1 sequence (P17787 26-502): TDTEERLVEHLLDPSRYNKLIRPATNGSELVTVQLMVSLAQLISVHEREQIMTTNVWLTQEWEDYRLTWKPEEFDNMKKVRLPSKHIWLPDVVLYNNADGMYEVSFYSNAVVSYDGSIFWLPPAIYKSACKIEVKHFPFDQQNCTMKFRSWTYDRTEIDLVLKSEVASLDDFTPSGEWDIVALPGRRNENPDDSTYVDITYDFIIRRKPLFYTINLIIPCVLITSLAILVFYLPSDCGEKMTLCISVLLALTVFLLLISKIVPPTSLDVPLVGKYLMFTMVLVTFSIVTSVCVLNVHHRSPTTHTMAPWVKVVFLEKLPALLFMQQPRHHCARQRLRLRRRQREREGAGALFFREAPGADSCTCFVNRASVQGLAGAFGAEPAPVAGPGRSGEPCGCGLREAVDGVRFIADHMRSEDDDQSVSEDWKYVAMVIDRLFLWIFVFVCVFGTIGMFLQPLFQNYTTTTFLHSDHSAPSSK

## c1cnc2cc3c(cc2n1)CCNCC3 [Compound A, 7,8,9,10-tetrahydro-6H-azepino[4,5-g]quinoxaline]
[1]
  Ki: 10 nM
[2]
  Ki: 17 nM
[3]; 0.03 mg/kg (0.15 μmol/kg) p.o., 6 h pre-treatment prior to the recall trial, vehicle 52±0.5%
  recognition index: 64±3%
[3]; 0.3 mg/kg (1.5 μmol/kg) p.o., 30 minutes before the three trials, vehicle 50±0.5%
  recognition index: 69±5%
[3]; 0.3 mg/kg (1.5 μmol/kg) p.o., 6 h pre-treatment prior to the recall trial, vehicle 52±0.5%
  recognition index: 68±3%
[3]; 3 mg/kg (15.1 μmol/kg) p.o., 30 minutes before the three trials, vehicle 50±0.5%
  recognition index: 65±3%
[3]; 0.15 and 1.51 μmol/kg p.o., recall trial 6 h post administration
  duration of effect on recognition memory index: facilitated recognition memory index for up to 6 h after dosing
[3]; 0.3 and 3 mg/kg p.o., 30 minutes before the three trials
  effect on recognition memory (enhancement of recognition index vs vehicle): facilitated recognition memory
[4]
  effect on scopolamine-induced cognitive deficits, MWM: reverse scopolamine-induced cognitive deficits
